# Measurements as given in publication PMC6222614, “Disubstituted 4-Chloro-3-nitrophenylthiourea Derivatives: Antimicrobial and Cytotoxic Studies” (Molecules : A Journal of Synthetic Chemistry and Natural …, 2018).
# Read-outs that look alike come from different tables or passages of the source.
# What was measured:
# HaCaT cells [1] = assay: Lactate dehydrogenase (LDH) release assay in HaCaT cells; type: cell-based; conditions: 24 h
# Procedure: Cells were passaged using trypsin-EDTA (Gibco Life Technologies, Carlsbad, CA, USA) and cultured in 24-well plates (2.5 × 10^4 cells per well). Experiments were conducted in DMEM with 2% FBS.
# Release of lactate dehydrogenase (LDH) from the cytosol to culture medium is a marker of cell death. The assay was performed after 24 h incubation of HaCaT cells in 24-well plates with investigated concentrations of each compound. The activity of LDH released from the cytosol of damaged cells to the supernatant was measured using the protocol of the cytotoxicity detection kit LDH test described by the manufacturer (Roche Diagnostics, Berlin, Germany). Absorbance was measured at 490 nm using a microplate reader (using Epoch microplate reader, BioTek Inc., Winooski, VT, USA) equipped with Gen5 software (BioTech Instruments, Inc., Biokom, Janki, Polska)
# Compounds mediated cytotoxicity expressed as the LDH release (%) was determined by the following equation: [(A test sample—A low control)/(A high control—A low control)] × 100% (A-absorbance); where “low control” were cells in DMEM with 2% FBS without tested compounds, and “high control” were cells incubated in DMEM with 2% FBS with 10% Triton X-100 (100% LDH release).
# HaCaT cells [2] = assay: Proliferation rate in cultures of HaCaT cells (trypan blue counting); type: cell-based, human; conditions: lowest concentrations (8 µM for 11 and 13, 37 µM for 25), 48 h
# Procedure: (§1) Human immortal keratinocyte cell line from adult human skin (HaCaT) was purchased from American Type Culture Collection (Rockville, MD, USA), and cultured in Dulbecco’s Modified Eagle’s Medium (DMEM), supplemented with antibiotics (penicillin and streptomycin), 10% heat-inactivated FBS-fetal bovine serum (Gibco Life Technologies, Carlsbad, CA, USA) at 37 °C and 5% CO2 atmosphere. Cells were passaged using trypsin-EDTA (Gibco Life Technologies, Carlsbad, CA, USA) and cultured in 24-well plates (2.5 × 10^4 cells per well). Experiments were conducted in DMEM with 2% FBS.
# After 48 h incubation with the lowest concentration of the tested compound the increased number of viable cells were assessed by direct counting of cells using trypan blue with a Countess Automated Cell Counter (Invitrogen, Carlsbad, CA, USA). The results are presented as a % of viable and dead cells versus control.
# CRL7065 = assay: Antiproliferative assay (MTT), normal cell line; type: cell-based, human; conditions: normal foreskin fibroblasts, concentration reducing cell proliferation by 50%, 96 h
# Procedure: (§2) Cell lines derived from human solid tumors were: Skin melanoma (SK-MEL-28); prostate carcinoma (DU-145). Normal tissues foreskin fibroblasts (CRL-7065) were also used. Cells were seeded at 1 × 10^5 cells/mL in 96 well plates in specific media supplemented with 10% FCS and antibiotics, as above. Cell cultures were then incubated at 37 °C in a humidified, 5% CO2 atmosphere in the absence or presence of serial dilutions of test compounds. Cell viability was determined after 96 h at 37 °C by the MTT method.
# WIL-2NS = assay: Antiproliferative assay (MTT); type: cell-based, human; conditions: concentration reducing cell proliferation by 50%, 96 h, mean of three determinations
# Procedure: (§3) Cell lines derived from human hematological tumors were: CD4+ human T-cells containing an integrated HTLV-1 genome (MT-4); CD4+ human acute T-lymphoblastic leukemia (CCRF-CEM); human splenic B-lymphoblastoid cells (WIL-2NS); human acute B-lymphoblastic leukemia (CCRF-SB). Cells were seeded at an initial density of 1 × 10^5 cells/mL in 96 well plates in RPMI-1640 medium supplemented with 10% fetal calf serum (FCS), 100 units/mL penicillin G and 100 μg/mL streptomycin.
# as §2
# CCRF-SB = assay: Antiproliferative assay (MTT); type: cell-based, human; conditions: concentration reducing cell proliferation by 50%, 96 h, mean of three determinations
# Procedure: as §3, §2
# CCRF-CEM = assay: Antiproliferative assay (MTT); type: cell-based, human; conditions: concentration reducing cell proliferation by 50%, 96 h, mean of three determinations
# Procedure: as §3, §2
# MT-4 = assay: Antiproliferative assay (MTT); type: cell-based, human; conditions: concentration reducing cell proliferation by 50%, 96 h, mean of three determinations
# Procedure: as §3, §2
# SK-MEL-28 = assay: Antiproliferative assay (MTT); type: cell-based, human; conditions: skin melanoma, concentration reducing cell proliferation by 50%, 96 h
# Procedure: as §2
# DU145 = assay: Antiproliferative assay (MTT); type: cell-based, human; conditions: prostate carcinoma, concentration reducing cell proliferation by 50%, 96 h
# Procedure: as §2
# MT-4 cells = assay: Cytotoxicity against mock-infected MT-4 cells (MTT); type: cell-based, human; conditions: concentration reducing viability of mock-infected MT-4 cells by 50%, 96 h
# How it was run: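 Uninfected MT-4 cells (HTLV-1-transformed human CD4+ T cells) seeded at 1 × 10^5 cells/mL in RPMI-1640 with 10% FBS and grown with serially diluted compounds at 37 °C, 5% CO2. Viability read by MTT after 96 h.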
# HIV-1 IIIB = assay: Anti-HIV-1 activity: protection of MT-4 cells from virus-induced cytopathogenicity (MTT); type: cell-based, Human Immunodeficiency Virus type-1; conditions: 50% protection of MT-4 cells from HIV-1 induced cytopathogenicity, MTT, 4-day incubation; read-out: HIV-1IIIB EC50
# How it was run: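 MT-4 cells (1 × 10^4/well) infected with HIV-1 IIIB at m.o.i. 0.01 (100 CCID50) in presence of serial compound dilutions. Protection from virus-induced cytopathogenicity measured by MTT viability after 4 days at 37 °C.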
# HaCaT cells [3] = assay: Cell viability in HaCaT cells (MTT mitochondrial reduction); type: cell-based, human
# Procedure: as §1
# The cell viability assay was assessed by the determination of MTT salt (3-(4,5-dimethylthiazol-2-yl)-2,5-diphenyltetrazolium bromide, Sigma-Aldrich Chemie, Buchs, Germany) conversion by mitochondrial dehydrogenase. […] Absorbance of solubilized formazan was measured spectrophotometrically at 570 nm (using Epoch microplate reader, BioTek Inc., Winooski, VT, USA, equipped with Gen5 software (BioTech Instruments, Inc., Biokom, Janki, Polska).
# Cell viability was presented as a percent of MTT in the treated cells versus the control (cells incubated in serum-free DMEM without extracts). The relative MTT level (%) was calculated as [A]/[B] × 100, where [A] is the absorbance of the test sample and [B] is the absorbance of the control sample containing the untreated cells. […]
SMILES,cell mortality (LDH release) increased to (HaCaT cells [1]) [%],LD10 (concentration at which 10% of cells were dead) (HaCaT cells [1]; LDH assay) [µM],inhibition of viable cell proliferation (HaCaT cells [2]),CC50 (CRL7065) [µM],CC50 (WIL-2NS) [µM],CC50 (CCRF-SB) [µM],CC50 (CCRF-CEM) [µM],CC50 (MT-4) [µM],CC50 (SK-MEL-28) [µM],CC50 (DU145) [µM],CC50 (MT-4 cells) [µM],EC50 (HIV-1 IIIB) [µM],cytotoxicity (MTT) (HaCaT cells [3]) [%],release of LDH (HaCaT cells [1]; concentrations 8 and 16 µM) [%],"cytotoxicity (MTT) (HaCaT cells [3]; HaCaT, 24 h, moderate according to ISO 10993-5) [%]",cytotoxicity as compared to the LD10 value (HaCaT cells [1]; all applied concentrations (37 µM and higher)) [fold]
O=[N+]([O-])c1cc(NC(=S)Nc2ccc(Cl)c(Cl)c2)ccc1Cl [Compound 11],20,8,~65%,16,9.9,8.6,8,7.9,8.5,6,7.9,> 7.9,–,–,–,–
Cc1ccc(NC(=S)Nc2ccc(Cl)c([N+](=O)[O-])c2)cc1Cl [Compound 13],30,–,30–40%,16,7.6,6.7,4,8,6,7,8,> 8,50,~10,–,–
O=[N+]([O-])c1cc(NC(=S)NCc2ccccc2)ccc1Cl [Compound 25],–,–,30–40%,–,–,–,–,–,–,–,36.7,> 36.7,–,–,50,7
